Positions of bridges follow the written chain, without caps; N, C: chain ends. Non-standard residues stand in square brackets, D forms with d. *: point of attachment. Benzoyl(4-F) = O=C(c1ccc(F)cc1)*; Cit = NC(=O)NCCC[C@H](N)C(=O)O
Key:
[1] = tested on: malignant cells of hematopoietic origin including AML; details: cited from earlier work
[2] = tested on: relapsed or refractory AML; assay: Phase 2a study of BL-8040 combined with high dose Ara-C (HiDAC) in relapsed/refractory AML: efficacy; format: in vivo, human
Source text: Subjects were accrued in a conventional 3+3 design.
Follow-up period started after completion of Ara-C chemotherapy and continued for up to 6 weeks after initiation of salvage chemotherapy with Ara-C, i.e., up to Day 44. Subjects participating in the expansion phase were followed for up to 5 years after completion of the follow-up period. Subjects were contacted by telephone at approximately 3-month intervals (±1 month) after the end of the follow-up period to determine AML status and survival.

AML blasts = assay: Pharmacodynamic assessment: mobilization and differentiation of AML blasts (peripheral blood, bone marrow); format: in vivo, human
Description: (§1) FIGS. 3A-D show BL-8040 Mediated CXCR4 Receptor Occupancy and Induce Mobilization and Differentiation of AML Blasts. (A) Fold change in level of occupied CXCR4 receptor prior and post treatment with low (0.5, 0.75 and 1 mg/kg) and high (1.25, 1.5 and 2 mg/kg) BL-8040 dose levels. (B) Fold change in AML blast counts pre and post BL-8040 and BL-8040+HiDAC treatments in responders and non-responders. (C) Fold change in the level of AML blasts in the BM following BL-8040 treatment (D) Change in levels of BM Granulocytes following 2 days of BL-8040 treatment.

CXCR4 receptor = target: T1, CXCR4 receptor (Homo sapiens, UniProt P61073); assay: Pharmacodynamic assessment: CXCR4 receptor occupancy prior and post BL-8040 treatment; format: in vivo
T1 construct: Fold change in level of occupied CXCR4 receptor prior and post treatment with low (0.5, 0.75 and 1 mg/kg) and high; endogenous in cells
Description: as §1
Receptor occupancy is typically assessed using two monoclonal antibodies (mAbs) binding to two different epitopes of the CXCR4 antigen. […] It will be appreciated that receptor occupancy can also be determined by using an antibody which binds peptide-free CXCR4 prior to and post contacting with the peptide (e.g., 12G5, supra).
According to a specific embodiment, the receptor occupancy is determined as follows: Percent or number of CXCR4 expressing cells (e.g., using 12G5 Ab) post drug (e.g., SEQ ID NO: 1) treatment out of percent or number of CXCR4 expressing cells (e.g., using 12G5 Ab) prior to drug (e.g., SEQ ID NO: 1) treatment *100, such a calculation provides receptor occupancy per cell.

[3] = all patients at all BL-8040 dose levels (N=42)
[4] = responding subjects at the 1.5 mg/kg dose (9/23 with CR/CRi)
[5] = responding subjects within the 1.5 mg/kg dose group
[6] = subjects receiving 1.5 mg/kg (N=23)
[7] = responding patients following BL-8040 treatment vs baseline, compared to non-responders

T1 sequence (P61073 whole entry): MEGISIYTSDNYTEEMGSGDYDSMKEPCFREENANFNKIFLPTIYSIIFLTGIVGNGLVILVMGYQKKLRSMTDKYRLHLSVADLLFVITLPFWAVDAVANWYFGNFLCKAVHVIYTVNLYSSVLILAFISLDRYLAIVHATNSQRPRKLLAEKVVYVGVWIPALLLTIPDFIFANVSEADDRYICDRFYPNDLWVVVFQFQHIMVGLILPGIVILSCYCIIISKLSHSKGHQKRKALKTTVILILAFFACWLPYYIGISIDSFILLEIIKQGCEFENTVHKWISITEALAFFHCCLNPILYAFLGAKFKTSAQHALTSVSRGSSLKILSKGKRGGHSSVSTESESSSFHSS

For “4F-benzoyl-Arg-Arg-Nal-Cys-Tyr-Cit-Lys-DLys-Pro-Tyr-Arg-Cit-Cys-Arg-NH2 ({Benzoyl(4-F)}-RR[Nal]CY[Cit]K[dK]PYR[Cit]CR-NH2; disulfide 4-13 (inferred)) [BL-8040]”, the “cytotoxicity toward malignant cells” value [1] is given as “CXCR4-dependent preferential cytotoxicity”, the 1-year survival rate [2, 3] is given as 37.2% and the 2-years survival rate [2, 3] is given as 20%. For the same substance, the 3-years survival rate [2, 3] was 16%, the “median overall survival (mOS)” value ([2]; all patients at all BL-8040 dose levels (N=42), with HiDAC) was 9.1 months and the “composite CR rate (CR and CRi)” value ([2]; expansion group that received 1.5 mg/kg BL-8040 (9/23), with HiDAC) was 39%. For the same substance, the “composite CR rate (CR and CRi)” value ([2]; refractory patients (9/19), with HiDAC) was 47%, the “composite CR rate (CR and CRi)” value ([2]; relapsed patients (3/23), with HiDAC) was 13% and the 1-year survival rate [2, 4] was 66.7%. For the same substance, the 2-years survival rate [2, 4] was 44.4%, the 3-years survival rate [2, 4] was 44.4% and the “median overall survival (mOS)” value [2, 4] was 21.8 months. The “EFS at 1 year” value [2, 5] was 55.6%, the “EFS at 2 years” value [2, 5] was 22.2% and the “EFS at 3 years” value [2, 5] was 22.2%. The “median duration of response (mDOR)” value [2, 5] was 17.4 months, the 1-year survival rate [2, 6] was 38.1% and the 2-year survival rate [2, 6] was 23.8%. For the same substance, the 3-year survival rate [2, 6] was 23.8%, the “median overall survival (mOS)” value [2, 6] was 10.7 months and the “levels of granulocytes in BM” value (AML blasts; responders vs non-responders relative to screening, following BL-8040 treatment) was “Statistically significant increased levels of granulocytes”. The “leukemic blasts in BM” value (AML blasts; [7]) was “decreased numbers of leukemic blasts in BM”, the “mobilized leukemic blasts in peripheral blood” value (AML blasts; [7]) was “statistically significant increased numbers of mobilized leukemic blasts” and the CXCR4 receptor occupancy (CXCR4 receptor; high BL-8040 dose levels (1.25, 1.5 and 2 mg/kg)) was “demonstrated CXCR4 receptor occupancy”. For the same substance, the CXCR4 receptor occupancy (CXCR4 receptor; low BL-8040 dose levels (0.5, 0.75 and 1 mg/kg)) was “insignificant changes in receptor occupancy”.

From patent publication US20210338767A1, “METHODS OF SELECTING TREATMENT FOR CXCR4-ASSOCIATED CANCER” (BioLineRx Ltd., priority 2018, published 2021)
